# Source: patent publication US11479804B1 (priority 2010, dated 2022)
# Entries after “also recorded” stand apart in the source; their conditions may differ.
# Experiments:
# acetylcholinesterase [1] = target: T1, acetylcholinesterase (Homo sapiens, UniProt P22303); format: biochemical
# acetylcholinesterase [2] = target: T1, acetylcholinesterase; test: Acetylcholinesterase assay with malaoxon in complex samples (apple juice, whole milk, soil) using GEMBE; format: biochemical; conditions: for LOD in filtered apple juice: filtered apple juice (10× dilution); for LOD in soil: soil added as a slurry to the sample reservoir; for LOD in whole milk: whole milk (10× dilution)
# Protocol: (§1) Assay Conditions in Apple Juice. A running buffer was prepared consisting of 4-(2-hydroxyethyl)-1-piperazineethanesulfonic acid, i.e. HEPES, at a concentration of ˜100 mM and 2-[Bis(2-hydroxyethyl)amino]-2-(hydroxymethyl)-1,3-propanediol, i.e. BIS-TRIS, at a concentration of ˜100 mM. The running buffer was prepared at pH ˜7.1. EOTrol™ HR (Target Discovery, Palo Alto, Calif.) was added to the run buffer as a dynamic coating to reverse the direction of EOF at a concentration of 1% (by volume).
# (§2) Prior to reaction, the surface of a polyoxymethylene sample reservoir (Delrin, DuPont, Wilmington, Del.) was passivated with bovine serum albumin (˜2 mg/mL). A sample containing malaoxon (˜1 mM) in filtered apple juice (10× dilution) was added to the sample reservoir. Acetylcholine (˜500 μM) and acetylcholinesterase (˜10.4 nM) were added to the sample reservoir and were allowed to incubate for ˜5 min.
# as §1, with “Whole Milk.” for “Apple Juice.”
# as §2, with “(2” for “(˜2”, “whole milk (4% milk fat, Giant Food) at a dilution of 10×” for “filtered apple juice (10× dilution)”, “minutes.” for “min.”
# as §1, with “Soil.” for “Apple Juice.”
# Prior to reaction, the surface of a polyoxymethylene sample reservoir (Delrin, DuPont, Wilmington, Del.) was passivated with bovine serum albumin (2 mg/mL). A sample containing malaoxon (˜1 mM) in soil was added as a slurry to the sample reservoir. Acetylcholine (˜500 μM) and acetylcholinesterase (˜10.4 nM) were added to the sample reservoir and were allowed to incubate for ˜5 min.
# Separation of Acetylcholine and Choline Using Gradient Elution Moving Boundary Electrophoresis. The reaction mixtures were separately introduced into the inlet end of the separation channel of a GEMBE device, wherein a voltage of ˜−2000V was applied on the waste chamber. During the GEMBE separation, the pressure applied to the run buffer reservoir was varied from about 6,000 Pa to about −8,000 Pa at a rate of −300 Pa/s. The concentration of choline was detected and quantified.
# [3] = acetylcholine ~500 μM, acetylcholinesterase ~10.4 nM
# T1 sequence (P22303 32-614): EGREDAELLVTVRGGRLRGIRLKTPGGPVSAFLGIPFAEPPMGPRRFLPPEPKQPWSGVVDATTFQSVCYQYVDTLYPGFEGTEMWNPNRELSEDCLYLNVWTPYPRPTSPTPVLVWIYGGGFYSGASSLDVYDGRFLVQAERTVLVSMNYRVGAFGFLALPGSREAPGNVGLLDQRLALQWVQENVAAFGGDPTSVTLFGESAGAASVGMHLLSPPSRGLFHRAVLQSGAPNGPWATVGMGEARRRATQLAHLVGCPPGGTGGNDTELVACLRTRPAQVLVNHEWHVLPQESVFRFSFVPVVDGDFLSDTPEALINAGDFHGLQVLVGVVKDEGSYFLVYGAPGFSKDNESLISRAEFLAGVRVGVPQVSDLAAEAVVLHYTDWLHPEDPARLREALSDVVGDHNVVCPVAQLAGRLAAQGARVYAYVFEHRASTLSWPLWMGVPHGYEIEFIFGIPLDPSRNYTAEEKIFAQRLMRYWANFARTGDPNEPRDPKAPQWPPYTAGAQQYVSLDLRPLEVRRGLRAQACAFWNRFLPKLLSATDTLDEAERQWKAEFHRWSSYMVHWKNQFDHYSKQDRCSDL
smiles,measurement,setting,value
CCOC(=O)CC(SP(=O)(OC)OC)C(=O)OCC (stereo not drawn) [malaoxon],concentration of choline formed (inhibition of acetylcholinesterase),acetylcholinesterase [1],a decrease in the concentration of choline was observed; also recorded: the concentration of choline does not increase over time
same,limit of detection (LOD),acetylcholinesterase [1],87.7 ppb
same,limit of detection (LOD) from conversion rate of acetylcholine to choline,acetylcholinesterase [1],~279 nM
same,LOD in filtered apple juice,acetylcholinesterase [2],85.6 ppb
same,LOD in filtered apple juice,acetylcholinesterase [2]; [3],~2.72e-07 M
same,LOD in soil,acetylcholinesterase [2],1.5 ppm
same,LOD in soil,acetylcholinesterase [2]; [3],~4.93e-06 M
same,LOD in whole milk,acetylcholinesterase [2],82.0 ppb
same,LOD in whole milk,acetylcholinesterase [2]; [3],~2.61e-07 M
